These results are taken from US20110144206A1, “USE OF A COX-2 INHIBITOR FOR THE TREATMENT OF A COX-2 DEPENDENT DISORDER IN A PATIENT NOT CARRYING HLA ALLELES ASSOCIATED WITH HEPATOTOXICITY” (priority 2008, published 2011).

Structures are written as SMILES.

Series [1] in a line: Liver enzyme (ALT/AST) elevation rates in TARGET study. It is filed as in vivo, human. On the procedure:
Affected patients and matched controls are identified from a large 52-week international, multicenter, stratified, randomized, double-blind, double-dummy, parallel group clinical study. Most patients are administered one 400 mg dose of lumiracoxib each day. Patients are identified as affected cases based upon clinical measurements of elevated liver enzymes greater than or equal to 3 times ULN following administration of lumiracoxib. Patients are identified as control cases based upon clinical measurements of elevated liver enzymes less than 3 times ULN following administration of lumiracoxib, and control patients are matched to affected cases based upon clinical trial, country (where possible), sex, race and age (within 2 years, where possible). A total of 137 cases and 577 matched controls are used for analysis.
Kaplan-Meier incidence estimates are calculated for the DQA1*0102 carriers and non-carriers for >3xULN (FIG. 4) and >5xULN (FIG. 5) ALT/AST elevations.

For series [2] the following is noted: cited from earlier work.
[3] abbreviates: TARGET, crude rate, whole treatment group.
Setting [4] is: TARGET, crude rate, whole treatment group (Hy's law cases).
[5] abbreviates: TARGET, patients with DNA and excluding DQA1*0102 patients, N ~3538 estimated.

In the case of `CC(C)Cc1ccc(C(C)C(=O)O)cc1` (centres unmarked) [Ibuprofen], in series [1] (setting [3]), the “ALT/AST >3x ULN” value is on record as 35 (0.8) n (%), the “ALT/AST >5x ULN” value is listed as 13 (0.3) n (%) and the “ALT/AST >8x ULN” value was 4 (0.1) n (%). The “ALT/AST >3x ULN + bilirubin ≧2xULN” value in series [1] (setting [4]) is listed as 2 (0.05) n (%). In addition, the “Hy's law cases” value in series [1] (TARGET, per treatment arm) is reported as 2 cases.
For `COc1ccc2cc([C@H](C)C(=O)O)ccc2c1` [Naproxen], in that order: 21 (0.5) n (%), 6 (0.1) n (%), 3 (0.1) n (%), 2 (0.04) n (%) and 2 cases.
With `Cc1ccc(Nc2c(F)cccc2Cl)c(CC(=O)O)c1` [Lumiracoxib, 2-[(2-chloro-6-fluorophenyl)amino]-5-methyl-benzeneacetic acid], the “Kaplan-Meier incidence estimates of >3xULN and >5xULN ALT/AST elevations” value is “dramatic increase in the incidence after week 13” in series [1] (DQA1*0102 carriers) and “do not show a sharp increase after week 13” in series [1] (DQA1*0102 non-carriers). Besides, the “Hy's law cases” value was “no cases” in series [1] (TARGET, DQA1*0102-negative patients in the lumiracoxib arm) and “Nine” in series [1] (TARGET, per treatment arm). Moreover, the “ALT/AST >3x ULN” value in series [1] (setting [3]) is listed as 236 (2.6) n (%); in series [1] (setting [5]) it was 36 (1.0) n (%). The “ALT/AST >5x ULN” value in series [1] (setting [3]) is given as 113 (1.3) n (%); in series [1] (setting [5]) it was 10 (0.3) n (%). For the same compound, the “ALT/AST >8x ULN” value is recorded as 56 (0.62) n (%) in series [1] (setting [3]) and 3 (0.1) n (%) in series [1] (setting [5]). For the same compound, the entries for the “ALT/AST >3x ULN + bilirubin ≧2xULN” value in series [1] (setting [4]) and in series [1] (setting [5]) were 9 (0.10) n (%) and 0 (0) n (%), respectively. For the same compound, in series [1] (TARGET, lumiracoxib DQA1*0102-negative patients), the “ULN ALT/AST rates compared to the lumiracoxib arm” value is “reduced considerably and are comparable to the other NSAIDs”. Moreover, the “retention in inflamed tissues” value in series [2] (inflamed tissues) is reported as “up to 24 hours”. In addition, the “time to maximum plasma concentrations after dosing” value in series [2] (oral) is given as “two”. The “elimination half-life from plasma” value in series [2] (plasma) was “four”.
